# Calls of active or inactive are those of the source. No rule for the calls is given here.
# Experiments:
# NS3h 2a[JFH1] = experiment: HCV NS3 helicase inhibition across viral strains, late-stage follow-up, selectivity assay for HCV NS3 helicase inhibitor project, biochemical, real-time fluorescence, strains con1 and JFH1, set 3 (AID 602275); settings: Recombinant NS3h, real-time fluorescence helicase unwinding
# NS3h 1b[con1] = experiment: as above; settings: Recombinant NS3h, real-time fluorescence helicase unwinding
Compound,IC50 (NS3h 2a[JFH1]),IC50 (NS3h 1b[con1]),outcome (NS3h 1b[con1])
CCN(CC)c1ccc(-c2nc3ccc(-c4nc5ccc(C)c(S(=O)(=O)O)c5s4)cc3s2)cc1,4.7 µM,4.6 µM,
Cc1ccc2nc(-c3ccc4nc(-c5ccc(NC(=O)c6cccc(C(F)(F)F)c6)cc5)sc4c3)sc2c1S(=O)(=O)O,15.9 µM,19.7 µM,
CCOc1ccc2c(NNC(=O)c3cnccn3)c3c(nc2c1)CCCC3,inactive,,inactive
Cc1cc2sc(-c3ccc4nc(-c5ccc(N)cc5)sc4c3)nc2cc1S(=O)(=O)O,3.9 µM,7 µM,
Cc1ccc2nc(-c3ccc(NC(=O)c4ccc(NC(=O)OCC5c6ccccc6-c6ccccc65)cc4)cc3)sc2c1S(=O)(=O)O,11.5 µM,11.8 µM,
Cc1ccc2nc(-c3ccc(NC(=O)c4ccc(NC(=O)Nc5ccccc5)cc4)cc3)sc2c1S(=O)(=O)O,32.1 µM,43.8 µM,
Cc1ccc2nc(-c3ccc4nc(-c5ccc(NC(=O)Nc6ccc(F)cc6)cc5)sc4c3)sc2c1S(=O)(=O)O,9.9 µM,7.8 µM,

# Results, then the molecule that gave them:
IC50 (NS3h 2a[JFH1]),IC50 (NS3h 1b[con1]),outcome (NS3h 1b[con1]),Compound
2.4 µM,9.7 µM,,COC(=O)c1ccc(C(=O)Nc2ccc(-c3nc4ccc(-c5nc6ccc(C)c(S(=O)(=O)O)c6s5)cc4s3)cc2)cc1
1.9 µM,2.5 µM,,Cc1ccc2nc(-c3ccc(NC(=O)c4ccc(NC(=O)c5ccc(NC(=O)OCC6c7ccccc7-c7ccccc76)cc5)cc4)cc3)sc2c1S(=O)(=O)O
2.3 µM,3.4 µM,,Cc1ccc2nc(-c3ccc4nc(-c5ccc(NC(=O)c6ccc(Cl)cc6)cc5)sc4c3)sc2c1S(=O)(=O)O

# Source: PubChem BioAssay AID602275 (The Scripps Research Institute Molecular Screening Center, 2012)
